Measurements as given in publication PMC4446623, “Tackling the Cytotoxic Effect of a Marine Polycyclic Quinone-Type Metabolite: Halenaquinone Induces Molt 4 Cells Apoptosis via Oxidative Stress Combined with the Inhibition of HDAC and Topoisomerase Activities” (Marine Drugs, 2015).
pIC50: −log10 of the molar value.

Legend:
topo IIα = molecular target: T1, topo IIα (Homo sapiens, UniProt P11388); assay: cell-free relaxation assay of supercoiled pHOT1 plasmid DNA with purified human topo II, agarose gel; format: biochemical
T1 construct: gene TOP2A
T1 sequence (P11388 whole entry): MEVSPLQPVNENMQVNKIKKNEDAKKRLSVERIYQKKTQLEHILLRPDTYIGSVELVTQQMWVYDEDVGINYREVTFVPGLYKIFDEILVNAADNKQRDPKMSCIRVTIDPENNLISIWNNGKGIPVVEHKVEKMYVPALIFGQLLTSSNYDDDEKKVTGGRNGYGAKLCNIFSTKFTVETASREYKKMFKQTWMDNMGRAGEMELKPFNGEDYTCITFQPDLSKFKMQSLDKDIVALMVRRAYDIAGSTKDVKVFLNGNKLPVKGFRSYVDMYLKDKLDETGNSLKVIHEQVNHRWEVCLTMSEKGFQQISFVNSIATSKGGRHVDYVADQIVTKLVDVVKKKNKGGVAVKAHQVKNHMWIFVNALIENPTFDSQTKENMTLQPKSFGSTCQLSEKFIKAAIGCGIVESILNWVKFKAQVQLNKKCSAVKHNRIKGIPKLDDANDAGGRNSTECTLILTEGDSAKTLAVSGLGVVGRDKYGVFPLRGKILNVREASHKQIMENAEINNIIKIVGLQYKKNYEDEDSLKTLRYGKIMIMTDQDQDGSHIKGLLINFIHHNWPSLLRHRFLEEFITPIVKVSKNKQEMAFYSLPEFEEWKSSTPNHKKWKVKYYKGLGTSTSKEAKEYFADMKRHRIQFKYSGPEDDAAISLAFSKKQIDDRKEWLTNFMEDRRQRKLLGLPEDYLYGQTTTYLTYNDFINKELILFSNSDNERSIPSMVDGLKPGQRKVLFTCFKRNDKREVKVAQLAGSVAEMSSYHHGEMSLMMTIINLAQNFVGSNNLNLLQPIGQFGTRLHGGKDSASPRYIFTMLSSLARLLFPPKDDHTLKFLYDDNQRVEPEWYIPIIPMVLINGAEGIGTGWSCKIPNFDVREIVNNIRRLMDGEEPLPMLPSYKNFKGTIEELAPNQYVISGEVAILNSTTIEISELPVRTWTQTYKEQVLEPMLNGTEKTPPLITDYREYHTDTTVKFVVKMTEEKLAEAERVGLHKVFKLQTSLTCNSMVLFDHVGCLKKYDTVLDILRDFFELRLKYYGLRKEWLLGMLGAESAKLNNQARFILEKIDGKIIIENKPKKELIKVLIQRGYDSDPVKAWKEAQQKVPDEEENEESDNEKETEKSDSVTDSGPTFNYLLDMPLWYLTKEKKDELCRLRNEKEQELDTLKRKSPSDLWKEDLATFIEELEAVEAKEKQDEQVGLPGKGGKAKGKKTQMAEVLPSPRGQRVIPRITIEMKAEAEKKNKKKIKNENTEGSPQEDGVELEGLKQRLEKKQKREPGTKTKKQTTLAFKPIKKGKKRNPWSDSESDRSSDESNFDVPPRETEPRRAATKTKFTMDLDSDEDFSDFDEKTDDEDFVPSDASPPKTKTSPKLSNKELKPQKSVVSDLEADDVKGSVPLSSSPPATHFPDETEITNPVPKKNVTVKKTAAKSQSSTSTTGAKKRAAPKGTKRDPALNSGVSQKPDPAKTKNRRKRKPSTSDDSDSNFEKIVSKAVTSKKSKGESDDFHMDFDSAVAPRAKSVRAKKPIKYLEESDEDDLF

topo I = molecular target: T2, topo I (Homo sapiens, UniProt P11387); assay: cell-free relaxation assay of supercoiled pHOT1 plasmid DNA with purified human topo I, agarose gel; format: biochemical
T2 construct: gene TOP1
T2 sequence (P11387 2-765): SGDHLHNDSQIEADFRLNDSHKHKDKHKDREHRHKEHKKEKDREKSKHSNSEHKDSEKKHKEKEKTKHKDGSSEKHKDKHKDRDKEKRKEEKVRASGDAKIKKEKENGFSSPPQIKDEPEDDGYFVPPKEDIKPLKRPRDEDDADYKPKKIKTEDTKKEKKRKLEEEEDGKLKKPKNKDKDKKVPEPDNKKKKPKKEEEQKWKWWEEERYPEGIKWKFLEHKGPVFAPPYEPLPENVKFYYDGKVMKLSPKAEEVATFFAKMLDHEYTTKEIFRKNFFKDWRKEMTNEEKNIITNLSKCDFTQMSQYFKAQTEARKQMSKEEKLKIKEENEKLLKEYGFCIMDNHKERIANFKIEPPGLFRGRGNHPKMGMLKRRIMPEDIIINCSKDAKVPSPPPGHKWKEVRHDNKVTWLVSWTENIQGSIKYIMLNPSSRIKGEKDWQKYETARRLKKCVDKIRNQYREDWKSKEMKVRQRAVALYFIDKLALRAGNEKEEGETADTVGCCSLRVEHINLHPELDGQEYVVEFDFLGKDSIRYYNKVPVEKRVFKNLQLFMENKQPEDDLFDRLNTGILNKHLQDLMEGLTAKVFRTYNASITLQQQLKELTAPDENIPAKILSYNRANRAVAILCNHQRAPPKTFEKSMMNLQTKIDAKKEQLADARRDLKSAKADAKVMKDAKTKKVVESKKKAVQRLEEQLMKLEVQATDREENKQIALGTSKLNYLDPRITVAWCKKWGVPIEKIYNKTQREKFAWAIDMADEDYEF

`C[C@@]12CCC(=O)c3coc(c31)C(=O)c1cc3c(cc12)C(=O)C=CC3=O` [HQ, halenaquinone] showed a pIC50 (topo IIα) of 7.78 and a pIC50 (topo I) of 5.45.
